This note sets out measurements from patent publication US20090297618A1, “COMPOSITION BENEFICIAL FOR VISUOGNOSIS PERSISTENCE AND USE THEREOF” (Zhejiang Medicine Co., Ltd. Xinchang Pharmaceutical Factory, priority 2008, published 2009).

The test system of the assay is subjects who use video display terminals (VDT) for long time and tend to have asthenopia. The experiment in a line: Human feeding test: detection of visuognosis persistence (asthenopia remission test). The class given is in vivo. To be noted: after feeding tablets 35 days, once per day, two tablets, compared with before feeding; FIG. 1. The source says: As used herein, the term “visuognosis persistence” is an index for evaluating asthenopia. When the cortical excitability in the human brain reduces, the visual analysis function decreases, in the process of eyes fixating at object, invisible duration will increase and visuognosis duration will decrease. […] X^2 test was used for performance indexes.

Structures are written as SMILES.

`CC1=C[C@H](O)CC(C)(C)[C@H]1/C=C/C(C)=C/C=C/C(C)=C/C=C/C=C(C)/C=C/C=C(C)/C=C/C1=C(C)C[C@@H](O)CC1(C)C` [lutein] came in with a visuognosis persistence increased of 10.27±8.56%.
